Test results published in US20110160123A1, “TARGETING THE EFFLUX SYSTEMS OF MYCOBACTERIUM TUBERCULOSIS” (THE UAB RESEARCH FOUNDATION, priority 2008, published 2011).
In brackets after ≈: the same amount, converted by molar mass. Where two headings read alike, the source gives them in different places.

What was measured:
[1] = tested on: M. bovis BCG transposon mutants; type: cell-based
[2] = tested on: M. smegmatis overexpressing the rv0194 gene of M. tuberculosis (SMR5/pML655); assay: microbe, parasite or virus in culture; type: cell-based; conditions: for MIC: Mycolicibacterium smegmatis
[3] = tested on: M. bovis BCG ML1034 mutant (bcg0231/rv0194 overexpressed); type: cell-based
[4] = tested on: M. tuberculosis mctB mutant ML256 (Δrv1698); type: cell-based
[5] = tested on: Mtb mctB mutant ML256; set-up: species or system mice; conditions: mouse, in vivo
[6] = read-out: MIC rv0194 overexpression

Row | SMILES | Resistance Factor [2] | MIC [2, 6] | Resistance Factor [3] | MIC ML1034 [3] | further results
1 | CC1(C)S[C@@H]2[C@H](NC(=O)[C@H](N)c3ccccc3)C(=O)N2[C@H]1C(=O)O [Ampicillin] | 2 | 0.25 mg/mL (≈ 715 µM) | 32 | – | MIC of ampicillin, completely resistant mutants [1]: ≥ 2,000 μg/ml; MIC of ampicillin, mutants excluded from further analysis [1]: lower than 250 μg/ml; MICs of ampicillin for all transposon mutants [1]: higher than 62.5 μg/ml; MIC of amp. [3]: 2000 mg/mL
2 | Cc1cc(-c2ccc(S(=O)(=O)O)cc2)c2ccc3c(-c4ccc(S(=O)(=O)O)cc4)cc(C)nc3c2n1 [Bathocuproine disulfonate] | – | – | – | – | protection from the toxic effects of CuSO4 [4]: protects Mtb from the toxic effects of CuSO4
3 | O=C(N[C@H](CO)[C@H](O)c1ccc([N+](=O)[O-])cc1)C(Cl)Cl [Chloramphenicol] | 1 | 0.032 mg/mL (≈ 99 µM) | 64 | 0.512 mg/mL (≈ 1580 µM) | –
4 | O=S(=O)([O-])[O-].[Cu+2] [CuSO4] | – | – | – | – | growth rate on plates with CuSO4 [4]: severely reduced the growth rate; effect of dietary CuSO4 on persistence of the mctB mutant in lungs [5]: aggravated the persistence defect
5 | CC[C@H]1OC(=O)[C@H](C)[C@@H](O[C@H]2C[C@@](C)(OC)[C@@H](O)[C@H](C)O2)[C@H](C)[C@@H](O[C@@H]2O[C@H](C)C[C@H](N(C)C)[C@H]2O)[C@](C)(O)C[C@@H](C)C(=O)[C@H](C)[C@@H](O)[C@]1(C)O [Erythromycin] | 4 | 0.01 mg/mL (≈ 13.6 µM) | – | – | –
6 | CO[C@@H]1[C@@H](OC(N)=O)[C@@H](O)[C@H](Oc2ccc3c(O)c(NC(=O)c4ccc(O)c(CC=C(C)C)c4)c(=O)oc3c2C)OC1(C)C [Novobiocin] | 2 | 0.008 mg/mL (≈ 13.1 µM) | – | – | –
7 | [H]/N=C(/N)N[C@H]1[C@H](O)[C@@H](O)[C@H](O[C@@H]2O[C@@H](C)[C@](O)(C=O)[C@H]2O[C@@H]2O[C@@H](CO)[C@H](O)[C@@H](O)[C@@H]2NC)[C@@H](N/C(N)=N\[H])[C@@H]1O [Streptomycin] | – | – | 32 | 0.016 mg/mL (≈ 27.5 µM) | –
8 | CN(C)[C@@H]1C(=O)C(C(N)=O)=C(O)[C@@]2(O)C(=O)C3=C(O)c4c(O)cccc4[C@@](C)(O)[C@H]3C[C@@H]12 [Tetracyclin] | 1 | – | – | >0.016 mg/mL | MIC rv0194 overexpression [2]: 0.0003 mg/mL (≈ 0.675 µM)
9 | CN[C@H](CC(C)C)C(=O)N[C@H]1C(=O)N[C@@H](CC(N)=O)C(=O)N[C@H]2C(=O)N[C@H]3C(=O)N[C@H](C(=O)N[C@H](C(=O)O)c4cc(O)cc(O)c4-c4cc3ccc4O)[C@H](O)c3ccc(c(Cl)c3)Oc3cc2cc(c3O[C@@H]2O[C@H](CO)[C@@H](O)[C@H](O)[C@H]2O[C@H]2C[C@](C)(N)[C@H](O)[C@H](C)O2)Oc2ccc(cc2Cl)[C@H]1O [Vancomycin] | 2 | 0.0025 mg/mL (≈ 1.73 µM) | – | 0.02 mg/mL (≈ 13.8 µM) | –
10 | CC[n+]1c(-c2ccccc2)c2cc(N)ccc2c2ccc(N)cc21 [ethidium bromide] | – | – | – | – | MIC ([2]; read-out: MIC of ethidium bromide): 0.0025 mg/mL
